# Assays:
# Format in all cases: in vivo
# [1] = tested on: rats in conflict situation; assay: Conflict situation model of Vogel, ethanol in drinking bowl; details: solution in the drinking bowl, mixture 10:1 volumetric ratio
# Method: Anxiolytic effect was evaluated in accordance with the number of punished water intakes.
# [2] = tested on: patients suffering from definite rheumatoid arthritis (oligoarthritis); assay: Clinical trial in rheumatoid arthritis (oligoarthritis), duration of effect of hydrocortisone injections; details: 20 patients, hydrocortisone 20-25 mg peri- or intra-articular; activated form per os over 8 weeks
# Method: Twenty patients suffering from definite rheumatoid arthritis (oligoarthritis) necessitating peri- or intra-articular injections of hydrocortisone were included in the clinical trial of influences of activated form (ultra-low doses) of anti-inflammatory agent—hydrocortisone on the therapeutic activity of hydrocortisone in relation with arthritis manifestations. At baseline all patients required injections of 20-25 mg hydrocortisone 2-3 times a week (up on request). Over 8 weeks patients received activated form of hydrocortisone in ultra-low doses per orally—1 tablet for dissolution in the mouth (activated form—mixture of homeopathic dilutions C12+C30+C200, equivalent concentration 10^−24M mass concentration) together with injections. Impacts of activated form were evaluated in accordance with duration of periods, when patients were independent from hydrocortisone injections.
# [3] = tested on: patients suffering from generalized anxiety syndrome; assay: Hamilton's scale of anxiety in patients with generalized anxiety syndrome, diazepam
# Description: Benzodiazepines represent reference medications for the treatment of anxious states. However, application of benzodiazepines is frequently associated with adverse effects that require dose reduction to minimal effective doses. Investigation of impacts induced by ultra-low doses of activated form of diazepam on the anxiolytic activity of therapeutic doses of diazepam was accomplished in 20 patients suffering from generalized anxiety syndrome characterized with the anxiety level consistent with at least 20 grades of Hamilton's scale of anxiety. Patients received tablets containing activated form of diazepam in ultra-low doses (homeopathic dilution C200, equivalent concentration—10^−400M mass concentration)—1 tablet 4 times a day for 14 days. Thereafter, beginning from 15th to 30th day of therapy patients were took per oral diazepam at the dose of 2 mg qid day (daily dose—8 mg) followed by administration of ultra-low doses of activated form of the very medication 4 tablets per day for 7 days and by combined treatment implicating simultaneous intake of activated form (4 tablets a day) and diazepam (8 mg per day) for 14 days. Anxiety level was evaluated by means of Hamilton's scale at baseline and after each stage of therapy.
# [4] = tested on: rats in conflict situation; assay: Conflict situation model of Vogel, phenazepam
# Method: Anxiolytic activity of phenazepam was studied by conflict situation model of Vogel J., 1971 in rats. Phenazepam was applied in 1) therapeutic dose, 2) activated form or 3) combination of therapeutic dose of phenazepam and activated form of the same medication. Therapeutic doses of Phenazepam (1 mg/kg) were injected intraperitoneally; activated form containing the mixture of homeopathic dilutions C12+C30+C200, was given at 2.5 ml/kg of animal's body weight intraperitoneally; combined treatment included simultaneous injections of both forms in two different syringes. The effect was evaluated after 20 minutes following to medication injections by the quantity of punished water intakes.
# [5] = tested on: Rat model of adjuvant arthritis; assay: Rat model of adjuvant arthritis (complete Freund's adjuvant), prednisone; details: rats, into the stomach; prednisone 2 mg/kg; activated form D24+D60 2.5mg/kg; combined 10:1
# Method: Rat model of adjuvant arthritis induced by single subplantar injection of 100 μl of complete Freund's adjuvant was applied for evaluation of anti-inflammatory activity of glucocorticosteroid agent—prednisone in following treatment choices: a) therapeutic dose, b) activated (potentiated) form (ultra-low dose), c) combined treatment with therapeutic dose and activated form. Soon after the injection of complete Freund's adjuvant animals (10 rats per group) received prednisone in therapeutic dose, in activated form or their combination (control—distilled water)—for 14 days.
# 2 mg/kg prednisone (water solution) was given into the stomach; activated form of prednisone in ultra-low doses—mixture of homeopathic dilutions D24+D60 was injected in the form of water solution at the dose of 2.5mg/kg of animal's body weight into stomach; both forms mixed at 10:1 ratio were injected at one time during combined treatment.
# Severity of inflammatory damage to each extremity (0 to 4) and overall index of arthritis severity (0 to 16) were assessed once per 1-2 days. Functional disturbances, erythema, edema and deformation of extremities were taken into account. Anti-inflammatory efficacy of the medications was evaluated in accordance with reduction of overall index of arthritis severity by the 2-3rd and 14th days of treatment.
smiles,measurement,setting,value
"CCO [Ethanol 10%, ethanol]",Number of punished water intakes,[1],317.2 ± 41.0
"C[C@]12CCC(=O)C=C1CC[C@@H]1[C@@H]2[C@@H](O)C[C@@]2(C)[C@H]1CC[C@]2(O)C(=O)CO [Hydrocortisone, hydrocortisone]","Duration effects of injections (time lag between injections ""upon request"")",[2],2.8 ± 0.3 days
CN1C(=O)CN=C(c2ccccc2)c2cc(Cl)ccc21 [diazepam],Overall level of anxiety in accordance with Hamilton's scale,"[3]; 20 patients, after the stage of therapy: activated form 2 weeks, then diazepam 8 mg/day, last stage combined 14 days",16.2 ± 2.5 grades
same,improvement versus baseline,"[3]; Hamilton's scale, after the stage of therapy",26%
same,anxiolytic effect (in words),[3]; dynamic changes in anxiety level,does not yield achievement of pronounced decline of anxiety
"O=C1CN=C(c2ccccc2Cl)c2cc(Br)ccc2N1 [Phenazepam, phenazepam]",Number of punished water intakes,"[4]; rats, intraperitoneally, 20 minutes after injection, phenazepam 1 mg/kg, activated form 2.5 ml/kg",415.67 ± 113.96
same,anxiolytic activity (in words),[4]; versus control,possesses anxiolytic activity
"C[C@]12C=CC(=O)C=C1CC[C@@H]1[C@@H]2C(=O)C[C@@]2(C)[C@H]1CC[C@]2(O)C(=O)CO [Prednisone, prednisone]",Arthritis severity index by 14th day of therapy,[5],5.4 ± 1.7 grades
same,Arthritis severity index by the 2-3rd day of therapy,[5],2.1 ± 0.4 grades

# From patent US20070123518A1, “Product designed to protentiate the therapeutic effects and to enhance the action of medicinal preparations” (priority 2003, published 2007)
